Data: PMC7594840, “Identification of histone deacetylase inhibitors with (arylidene)aminoxy scaffold active in uveal melanoma cell lines” (Journal of Enzyme Inhibition and Medicinal Chemistry, 2020)

Experiments:
HDAC8 = target: T1, HDAC8 (Homo sapiens, UniProt Q9BY41); test: Microfluidic chip-based HDAC inhibition assay (Calliper off-chip mobility shift), HDAC8; assay type: biochemical; conditions: duplicate, 10-point dose curve, 3-fold serial dilution from 30 μM
T1 construct: purchased BPS Bioscience
T1 sequence (Q9BY41 1-377): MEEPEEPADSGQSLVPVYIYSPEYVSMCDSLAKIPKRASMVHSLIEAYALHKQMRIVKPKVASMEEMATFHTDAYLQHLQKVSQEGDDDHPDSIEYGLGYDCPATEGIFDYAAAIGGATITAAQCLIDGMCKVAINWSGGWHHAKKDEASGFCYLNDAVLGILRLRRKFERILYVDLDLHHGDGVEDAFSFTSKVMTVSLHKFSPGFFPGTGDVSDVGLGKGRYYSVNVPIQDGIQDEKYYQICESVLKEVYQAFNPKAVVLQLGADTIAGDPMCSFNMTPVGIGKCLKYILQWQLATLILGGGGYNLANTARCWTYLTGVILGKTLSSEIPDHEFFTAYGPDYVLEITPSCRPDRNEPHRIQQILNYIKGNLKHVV
Excerpt: (§2) Test compounds were screened against human histone deacetylases (HDACs) 1, 3, 6, and 8 using the Calliper off-chip mobility shift assay technology. All HDACs were purchased from BPS Bioscience and four selective substrates were used according to the targeted isozyme. […] Buffers components, except for CR-3 (LabChip Coating Reagent 3, purchased from PerkinElmer, Product Number 760050) and Panobinostat (LBH589, purchased from ApexBio Technology)[35]^,[36] were purchased from Sigma Aldrich. […] (all purchased from Selleck Chemicals).

[1] = tested on: HeLa nuclear extract containing a mixture of HDACs; test: HDAC Fluorimetric Assay/Drug Discovery Kit (BIOMOL) on HeLa nuclear extract; assay type: biochemical
Method: The hydroxamic acids 1a–c, 2a–f and carboxylic acids 3a–c, 4a––e synthesised in this study were preliminarily tested on a HeLa nuclear extract containing a mixture of HDACs, by using a commercially available HDAC assay kit (BIOMOL). SAHA and Trichostatin A (TSA) were used as positive controls.
HDAC inhibitory activity of newly synthesised compounds was evaluated using an HDAC Fluorimetric Assay/Drug Discovery Kit (AK-500, BIOMOL). […] Reactions were stopped after 30 min by adding Fluor de Lys^TM Developer. After the addition of this developer, the plate was incubated at room temperature for 15 min, the fluorescence intensity of the wells was measured on a fluorometric plate reader with excitation set at 360 nm and emission detection set at 460 nm.

HDAC1 = target: T2, HDAC1 (Homo sapiens, UniProt Q13547); test: Microfluidic chip-based HDAC inhibition assay (Calliper off-chip mobility shift), HDAC1; assay type: biochemical; conditions: duplicate, 10-point dose curve, 3-fold serial dilution from 30 μM
T2 construct: purchased BPS Bioscience
Excerpt: as §2

92.1 cells = test: MTT cell viability assay, UM cell line 92.1; assay type: cell-based, human; conditions: 72 h treatment, compared with SAHA and LD10
Method: The anti-proliferative effects of the most promising HDAC inhibitors, VS16, VS13, SN2, and LD10 were evaluated on human UM cell lines (92.1 and Mel270) and SAHA was used as a positive control. First, we assessed by MTT assay the cell viability after a 72 h treatment at different concentrations. […] Similar results were found for ovarian carcinoma cell line A2780 and to a lesser extent for SKOV3 (Supplementary Figure S2).
Figure 7. MTT. In vitro cytotoxicity at the 72 h time point of the different compounds in human UM cell lines 92.1 and Mel270, as assessed by the MTT cell viability assay. Data are expressed as percent of control with the DMSO solvent, which was used at the same amount present in the highest compound concentration. Error bars represent SD of quadruplicates. One representative experiment is shown.
(§1) Treatments with the compounds were performed with slight differences, according to the final use of the samples. For the cell viability assay with MTT, cells were seeded in 96-well flat-bottom plates in culture medium at 5 × 10^3 cells/well, whereas for cell cycle analysis and QRT-PCR cells were seeded in 24-well plates at 5 × 10^4 cells/well. The day after, a culture medium containing the appropriate amount of compounds or their solvent control DMSO was added, and treatments were carried out for the indicated time.
Cell viability after treatment was evaluated by a microculture tetrazolium reduction assay using MTT [3–(4,5-dimethyltiazol-2-yl) 2,5-diphenyltetrazolium bromide; Sigma]. At 72 h of treatment, 20 μl of MTT stock solution (2 mg/ml in PBS) were added to 200 μl cell cultures for an additional 4 h of incubation. MTT-containing culture medium was then removed and precipitated formazan was dissolved in 100 μl of DMSO. Results were read within 15 min in a microplate reader spectrometer at 540 nm (MEDGENIX 400 ATC, Medgenix Diagnostics), and the means of quadruplicates were calculated. Cell survival was expressed as a percentage of control samples.

Mel270 cells = test: Cell cycle distribution by flow cytometry (PI), Mel270 cells; assay type: cell-based, human; conditions: 10 µM compound, 48 h
Method: We then investigated whether this anti-proliferative effect was due to the blockade in the G0/G1 phase of the cell cycle, as expected for SAHA[31].
Figure 8. Influence of the different compounds and DMSO solvent control on cell cycle distribution in UM 92.1 and Mel270 cells. The cells were treated with 10 µM compound for 48 h and cell cycle distribution was analysed by flow cytometry after fixation and staining with PI. The percentage of cells in each category is indicated. One representative experiment is shown.
as §1
To assess the cell cycle status of treated samples, after 48 h of incubation the cells were harvested, washed twice with cold PBS, and fixed in 70% ethyl alcohol at −20 °C overnight. The day after, the samples were washed with cold PBS and incubated for 20 min with propidium iodide (PI) staining solution (50 μg/ml PI, 0.05% Triton X-100, 0.2 mg/ml RNase A in PBS) at room temperature. Flow cytometric analysis of DNA content was performed using a FACScan flow cytometer with the CellQuest software (BD Biosciences). Gating on viable cells was performed using physical parameters and 10^4 gated events were acquired. Cell cycle analysis on the gated PI distribution was performed using Modfit software.

HDAC3 = target: T3, HDAC3 (Homo sapiens, UniProt O15379); test: Microfluidic chip-based HDAC inhibition assay (Calliper off-chip mobility shift), HDAC3; assay type: biochemical; conditions: duplicate, 10-point dose curve, 3-fold serial dilution from 30 μM; SAHA 15-point dose curve
T3 construct: purchased BPS Bioscience
T3 sequence (O15379 whole entry): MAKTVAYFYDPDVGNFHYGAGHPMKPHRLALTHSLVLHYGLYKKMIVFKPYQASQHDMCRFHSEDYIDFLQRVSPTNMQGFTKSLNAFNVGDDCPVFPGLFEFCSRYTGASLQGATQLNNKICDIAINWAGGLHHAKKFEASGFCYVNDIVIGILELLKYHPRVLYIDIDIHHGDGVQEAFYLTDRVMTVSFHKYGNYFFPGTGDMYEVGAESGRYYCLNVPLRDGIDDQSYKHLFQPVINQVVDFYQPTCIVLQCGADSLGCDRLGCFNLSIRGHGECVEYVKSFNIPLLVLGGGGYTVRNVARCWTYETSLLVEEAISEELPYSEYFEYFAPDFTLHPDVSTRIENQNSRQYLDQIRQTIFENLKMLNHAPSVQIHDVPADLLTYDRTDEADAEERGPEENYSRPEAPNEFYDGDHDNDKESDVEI
T3 sequence (Q9Y618 395-489 partner limits assumed): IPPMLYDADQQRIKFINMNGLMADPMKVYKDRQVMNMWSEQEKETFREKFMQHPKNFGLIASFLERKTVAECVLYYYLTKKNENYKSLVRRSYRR
Excerpt: as §2

T2 sequence (Q13547 whole entry): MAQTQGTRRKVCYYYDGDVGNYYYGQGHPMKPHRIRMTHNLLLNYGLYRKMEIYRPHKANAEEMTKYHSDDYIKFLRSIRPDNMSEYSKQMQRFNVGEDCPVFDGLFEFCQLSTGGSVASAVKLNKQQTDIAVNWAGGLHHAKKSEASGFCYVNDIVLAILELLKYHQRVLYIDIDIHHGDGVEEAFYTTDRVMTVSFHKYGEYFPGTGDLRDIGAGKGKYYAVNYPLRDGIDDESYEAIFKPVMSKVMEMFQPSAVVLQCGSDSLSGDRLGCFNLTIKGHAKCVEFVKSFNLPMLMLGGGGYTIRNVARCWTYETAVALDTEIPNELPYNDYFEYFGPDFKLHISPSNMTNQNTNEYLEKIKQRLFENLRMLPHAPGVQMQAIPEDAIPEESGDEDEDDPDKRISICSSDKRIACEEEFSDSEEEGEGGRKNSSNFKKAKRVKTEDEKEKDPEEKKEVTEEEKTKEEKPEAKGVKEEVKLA

O=C(CCCCO/N=C/c1cnc2ccccc2c1)NO [Compound 2f, (E)-N-hydroxy-5-(((quinolin-3-ylmethylene)amino)oxy)pentanamide]
IC50 (HDAC8): 9290 nM | folds more potent than SAHA ([1]; HeLa extract IC50 compared with SAHA): 3- to 5 fold | IC50 ([1]; means of at least three experiments, SD <20% of the mean): 54 nM | IC50 (HDAC1): 137 nM | effect on cell viability (MTT) (92.1 cells): stronger effect | effect on cell cycle distribution (Mel270 cells): efficiently block the cell cycle at the G0/G1 phase | IC50 (HDAC3): 40 nM
